Reference: patent US7705007B2, “Cis-imidazolines” (Hoffmann-La Roche Inc., priority 2006, dated 2010)
pIC50: −log10 of the molar value. Where a name gives a salt, the structure may show the parent alone.

Target: interaction between p53 and MDM2 proteins (recombinant GST-tagged MDM2 / p53 peptide) (Homo sapiens, UniProt Q00987)
Assay: HTRF assay of inhibition of the p53-MDM2 interaction (GST-MDM2 binding to biotinylated p53 peptide)
Details: 90 nM biotinylated p53 peptide, 160 ng/mL GST-MDM2, 37° C. 1 h
Protocol: The ability of the compounds to inhibit the interaction between p53 and MDM2 proteins was measured by an HTRF (homogeneous time-resolved fluorescence) assay in which recombinant GST-tagged MDM2 binds to a peptide that resembles the MDM2-interacting region of p53 (Lane et al.). Binding of GST-MDM2 protein and p53-peptide (biotinylated on its N-terminal end) is registered by the FRET (fluorescence resonance energy transfer) between Europium (Eu)-labeled anti-GST antibody and streptavidin-conjugated Allophycocyanin (APC).
Test is performed in black flat-bottom 384-well plates (Costar) in a total volume of 40 uL containing: 90 nM biotinylate peptide, 160 ng/mL GST-MDM2, 20 nM streptavidin-APC (PerkinElmerWallac), 2 nM Eu-labeled anti-GST-antibody (PerkinElmerWallac), 0.2% bovine serum albumin (BSA), 1 mM dithiothreitol (DTT) and 20 mM Tris-borate saline (TBS) buffer as follows: Add 10 uL of GST-MDM2 (640 ng/mL working solution) in reaction buffer to each well. Add 10 uL diluted compounds (1:5 dilution in reaction buffer) to each well, mix by shaking. Add 20 uL biotinylated p53 peptide (180 nM working solution) in reaction buffer to each well and mix on shaker. Incubate at 37° C. for 1 h. Add 20 uL streptavidin-APC and Eu-anti-GST antibody mixture (6 nM Eu-anti-GST and 60 nM streptavidin-APC working solution) in TBS buffer with 0.2% BSA, shake at room temperature for 30 minutes and read using a TRF-capable plate reader at 665 and 615 nm (Victor 5, Perkin ElmerWallac). If not specified, the reagents were purchased from Sigma Chemical Co.

interaction between p53 and MDM2 proteins (recombinant GST-tagged MDM2 / p53 peptide), sequence (Q00987 whole entry): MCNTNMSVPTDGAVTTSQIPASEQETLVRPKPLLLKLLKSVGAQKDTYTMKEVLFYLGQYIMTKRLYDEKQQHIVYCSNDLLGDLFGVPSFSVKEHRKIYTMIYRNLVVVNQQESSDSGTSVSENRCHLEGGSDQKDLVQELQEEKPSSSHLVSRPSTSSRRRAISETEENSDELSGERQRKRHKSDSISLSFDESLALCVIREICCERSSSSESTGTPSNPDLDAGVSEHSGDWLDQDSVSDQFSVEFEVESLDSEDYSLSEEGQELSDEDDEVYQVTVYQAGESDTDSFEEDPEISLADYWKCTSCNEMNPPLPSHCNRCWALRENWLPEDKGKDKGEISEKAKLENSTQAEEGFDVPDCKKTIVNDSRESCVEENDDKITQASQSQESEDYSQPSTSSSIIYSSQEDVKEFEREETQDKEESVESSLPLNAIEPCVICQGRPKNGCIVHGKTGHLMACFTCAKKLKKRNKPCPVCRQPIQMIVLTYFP

pIC50 | SMILES
7.27 | CCOc1ccsc1C1=N[C@@H](c2ccc(Cl)cc2)[C@@H](c2ccc(Cl)cc2)N1C(=O)N1CCN(CC(=O)N(CCOC)CCOC)CC1 [Example 36, 2-{4-[(4S,5R)-4,5-Bis-(4-chloro-phenyl)-2-(3-ethoxy-thiophen-2-yl)-4,5-dihydro-imidazole-1-carbonyl]-piperazin-1-yl}-N,N-bis-(2-methoxy-ethyl)-acetamide]
6.17 | CCOc1nc(C)ncc1C1=N[C@@H](c2ccc(Cl)cc2)[C@@H](c2ccc(Cl)cc2)N1C(=O)N1CCN(CC(=O)N(C)C)CC1 (relative stereo) [Example 17, cis-2-{4-[4,5-Bis-(4-chloro-phenyl)-2-(4-ethoxy-2-methyl-pyrimidin-5-yl)-4,5-dihydro-imidazole-1-carbonyl]-piperazin-1-yl}-N,N-dimethyl-acetamide]
5.54 | CCOc1nc(C(F)(F)F)ncc1C1=N[C@@H](c2ccc(Cl)cc2)[C@@H](c2ccc(Cl)cc2)N1C(=O)N1CCN(CCS(C)(=O)=O)CC1 (relative stereo) [Example 6, cis-[4,5-Bis-(4-chloro-phenyl)-2-(4-ethoxy-2-trifluoromethyl-pyrimidin-5-yl)-4,5-dihydro-imidazol-1-yl]-[4-(2-methanesulfonyl-ethyl)-piperazin-1-yl]-methanone]
6.96 | CCOc1ccsc1C1=N[C@@H](c2ccc(Cl)cc2)[C@@H](c2ccc(Cl)cc2)N1C(=O)N1CCN(CC(=O)NC(C)(C)C)CC1 [Example 34, 2-{4-[(4S,5R)-4,5-Bis-(4-chloro-phenyl)-2-(3-ethoxy-thiophen-2-yl)-4,5-dihydro-imidazole-1-carbonyl]-piperazin-1-yl}-N-tert-butyl-acetamide]
7.34 | CCOc1nc(C(C)(C)C)ncc1C1=N[C@@H](c2ccc(Cl)cc2)[C@@H](c2ccc(Cl)cc2)N1C(=O)N1CCNC(=O)C1 (relative stereo) [Example 20, cis-4-[2-(2-tert-Butyl-4-ethoxy-pyrimidin-5-yl)-4,5-bis-(4-chloro-phenyl)-4,5-dihydro-imidazole-1-carbonyl]-piperazin-2-one hydrochloride]
